{"source": "patent US20220228120A1", "about": "“Cardiomyocyte Compositions and Use Thereof” (UNIVERSITY HEALTH NETWORK, priority 2019, published 2022)", "format_in_all_cases": "cell-based, human", "key": {"[1]": {"system": "HEY2, MYCN, ANF, BMP10 expression", "experiment": "RT-qPCR of compact and trabecular markers after 6 days with factors", "conditions": "factors day 10-16", "procedure": "(§1) Total RNA from samples was isolated using RNAqueous™-micro Kit including RNase-free DNase treatment (invitrogen). RNA from dissected ventricular and atrial tissue of human fetal hearts was isolated using the TRIzol® method (ThermoFisher) and treated with DNase (Ambion®). Isolated RNA was reverse transcribed into cDNA using oligo (dT) primers and random hexamers and iScript™ Reverse Transcriptase (ThermoFisher). QRT-PCR was performed on an EP Real-Plex MasterCycler® (Eppendorf®) using QuantiFast® SYBR Green PCR kit (QIAGEN). The copy number of each gene relative to the house keeping gene TBP.\nFor these studies, we used our previously published protocol to generate cardiomyocytes (Lee, supra). […] Using this timeframe as an indication of the proliferative stage of ventricular development, between days 10 and 16 of differentiation, we added the small molecule GSK-3 inhibitor CHIR-99021 (“CHIR”; a WNT pathway agonist), or IGF2, or both, to the day 10 cell population (FIG. 1D). As a control, we added neuregulin 1 (NRG) to the cultures as it promotes the development of the trabecular myocardium in the developing heart (see, e.g., Del Monte-Nieto et al., Nature (2018) 557(7705):439-45; and Odiete et al., Circ Res. (2012) 111(10):1376-85). The cells were cultured with these factors for 6 days. The cells were then harvested, counted, and analyzed for expression of compact and trabecular genes by RT-qPCR. […] The addition of both factors promoted the greatest expansion in cell number, resulting in a 2-fold increase. […] It had little effect on HEY2, which was already expressed at reasonable levels within the population. IGF2 signaling had no effect on the expression of these genes. Addition of NRG reduced the expression of HEY2 and increased the expression of ANF, indicative of specification of a trabecular fate."}, "[2]": {"system": "compact ventricular populations", "experiment": "cTNT and Ki67 flow cytometry after 2 days XAV (day 18)", "procedure": "The EBs were dissociated by incubation in Collagenase type 2 (0.5 mg/ml, Worthington) in HANKs buffer overnight at room temperature followed by TrypLE™ for 5 mins at 37° C. The following antibodies were used for staining: anti-SIRPa-PeCy7 (Biolegend, 1:1000), anti-CD36-FITC (BD PharMingen™, 1:200), anti-LDLR-BV421 (BD PharMingen™, 1:100), anti-cardiac isoform of cTNT (ThermoFisher Scientific, 1:2000), or anti-myosin light chain 2 (Abcam,1:1000). For unconjugated primary antibodies, the following secondary antibodies were used for detection: goat anti-mouse IgG-APC (BD PharMingen™, 1:500), or donkey anti-rabbit IgG-PE (Jackson ImmunoResearch, 1:500). Detailed antibody information is described in the Key Resources Table. For cell-surface marker analyses, cells were stained for 30 min at 4° C. in FACS buffer consisting of PBS with 5% fetal calf serum (FCS) (Wisent) and 0.02% sodium azide. For intracellular staining, cells were fixed for 20 mins at 4° C. with 4% PFA in PBS followed by permeabilization using 90% methanol for 20 mins at 4° C. Cells were washed with PBS containing 0.5% BSA (Sigma) and stained with unconjugated primary antibodies in FACS buffer overnight at 4° C. Stained cells were washed with PBS with 0.5% BSA and stained with secondary antibodies in FACS buffer for 30 mins at 4° C. Stained cells were analyzed using the LSR II Flow cytometer (BD PharMingen™). Data were analyzed using FlowJo™ software (Tree Star).\nThe EBs were dissociated as described above. The following antibodies were used for staining: mouse anti-Ki67 (DAKO, 1:100) and rabbit anti-cardiac isoform of cTNT (ThermoFisher Scientific, 1:500). The following secondary antibodies were used for detection: donkey anti-mouse IgG-APC (BD Pharmigen™, 1:500), or donkey anti-rabbit IgG-PE (Jackson ImmunoResearch, 1:500). Detailed antibody information is described in the Key Resources Table. […] Stained cells were analyzed using the LSR II Flow cytometer (BD PharMingen™). Data were analyzed using FlowJo™ software (Tree Star). […]"}, "[3]": {"system": "hPSC-derived ventricular cardiomyocytes", "experiment": "Cardiomyocyte proliferation/expansion, factors added day 10 to day 16", "conditions": "CHIR 1 μM or IGF2 25 ng/ml", "procedure": "The EBs were dissociated as described above. The following antibodies were used for staining: mouse anti-Ki67 (DAKO, 1:100) and rabbit anti-cardiac isoform of cTNT (ThermoFisher Scientific, 1:500). The following secondary antibodies were used for detection: donkey anti-mouse IgG-APC (BD Pharmigen™, 1:500), or donkey anti-rabbit IgG-PE (Jackson ImmunoResearch, 1:500). Detailed antibody information is described in the Key Resources Table. Cells were fixed for 20 mins at 4 C with 4% PFA in PBS followed by permeabilization using 90% methanol for 20 mins at 4° C. Cells were washed with PBS containing 0.5% BSA (Sigma) and stained with unconjugated primary antibodies in FACS buffer overnight at 4° C. Stained cells were washed with PBS with 0.5% BSA and stained with secondary antibodies in FACS buffer for 30 mins at 4° C. Stained cells were analyzed using the LSR II Flow cytometer (BD PharMingen™). Data were analyzed using FlowJo™ software (Tree Star). At day 5, the EBs were transferred to StemPro™-34 with rhVEGF (5 ng/ml) for another 5 days and then to DMEM high glucose (Life Technologies) with 0.5 mg/mL human serum albumin (Sigma), ascorbic acid, transferrin, insulin (10 ng/ml, Sigma), CHIR (1 μM, Bio-Techne), and IGF2 (25 ng/ml, Bio-Techne) from day 10 to day 16. […] The cells were then harvested, counted, and analyzed for expression of compact and trabecular genes by RT-qPCR. […]"}, "[4]": {"system": "CD36^+SIRPA^+ compact cardiomyocytes", "experiment": "Flow cytometric analyses of CD36 and SIRPA expression", "procedure": "The EBs were dissociated by incubation in Collagenase type 2 (0.5 mg/ml, Worthington) in HANKs buffer overnight at room temperature followed by TrypLE™ for 5 mins at 37° C. The following antibodies were used for staining: anti-SIRPa-PeCy7 (Biolegend, 1:1000), anti-CD36-FITC (BD PharMingen™, 1:200), anti-LDLR-BV421 (BD PharMingen™, 1:100), anti-cardiac isoform of cTNT (ThermoFisher Scientific, 1:2000), or anti-myosin light chain 2 (Abcam,1:1000). For unconjugated primary antibodies, the following secondary antibodies were used for detection: goat anti-mouse IgG-APC (BD PharMingen™, 1:500), or donkey anti-rabbit IgG-PE (Jackson ImmunoResearch, 1:500). Detailed antibody information is described in the Key Resources Table. […] Stained cells were analyzed using the LSR II Flow cytometer (BD PharMingen™). Data were analyzed using FlowJo™ software (Tree Star).\nTo evaluate the capacity of the day 18 compact cardiomyocytes to undergo FAO, we analyzed them for expression of the fatty acid transporter CD36, which is essential for transporting fatty acid into cells (FIG. 2B). Given that most mature cardiomyocytes in the human heart express CD36, flow cytometric analyses of this transporter would provide rapid quantitative measure of the maturation status of these cells."}, "FAO-related genes": {"system": "FAO-related genes", "experiment": "RT-qPCR of FAO-related, mitochondrial and maturation genes in day 32 compact cardiomyocytes", "procedure": "as §1"}, "[5]": {"system": "hPSC-derived ventricular cardiomyocytes", "experiment": "HEY2/ANF immunostaining of day 16 ventricular population", "conditions": "day 16 population", "procedure": "The EBs were dissociated as described above and the cells were plated onto 24 well culture dishes pre-coated with Matrigel™ (25% v/v, BD PharMingen™). Cells were cultured for 2-3 days and were fixed with 4% PFA in PBS for 15 min at room temperature. Cells were permeabilized and blocked with PBS containing 5% donkey serum, 0.1% TritonX™. The following antibodies were used for staining: mouse anti-cardiac isoform of cTNT (ThermoFisher Scientific, 1:200), rabbit anti-human HEY2 (Proteintech, 1:100), mouse anti-human ANF (Abcam, 1:100), rabbit anti-human cTNT (Abcam, 1:200), or rabbit anti-human CD90 (Abcam, 1:200). For detecting unconjugated primary antibodies, the following secondary antibodies were used: donkey anti-mouse IgG-Alexa Fluor™ 488 (ThermoFisher, 1:500), donkey anti-rabbit IgG-Alexa Fluor™ 555 (ThermoFisher, 1:500), donkey anti-rabbit IgG-Alexa488 (ThermoFisher, 1:500), donkey anti-mouse IgG-Alexa Fluor™ 555 (ThermoFisher, 1:500). Detailed antibody information is described in the Key Resources Table. Cells were stained with primary antibodies in staining buffer consisting of PBS with 0.1% TritonX, and 5% donkey serum overnight at 4° C. The stained cells were washed with PBS. […] Stained cells were analyzed using an EVOS Microscope (ThermoFisher) and Zeiss LSM700 confocal microscope (Zeiss)."}}, "data": [{"molecule": "Cc1c[nH]c(-c2cnc(NCCNc3ccc(C#N)cn3)nc2-c2ccc(Cl)cc2Cl)n1", "note": "[CHIR, 6-((2-((4-(2,4-Dichlorophenyl)-5-(4-methyl-1H-imidazol-2-yl)pyrimidin-2-yl)amino)ethyl)amino)nicotinonitrile]", "values": [{"measurement": "expression of ANF", "setting": "[1]", "result": "decrease"}, {"measurement": "expression of BMP10", "setting": "[1]", "result": "decrease"}, {"measurement": "expression of HEY2", "setting": "[1]", "result": "little effect"}, {"measurement": "expression of MYCN", "setting": "[1]", "result": "significant increase"}, {"measurement": "expression of the fatty acid transporter CD36", "setting": "[1]", "result": "reduced"}, {"measurement": "expression of the glucose transporter GLUT1", "setting": "[1]", "result": "increased"}, {"measurement": "proportion of cTNT^+ cells in the population", "setting": "[2]; XAV(−) vs. ventricular control, day 18", "result": "reduction"}, {"measurement": "proportion of Ki67^−cTNT^+ cardiomyocytes detected at day 16", "setting": "[3]", "result": "significant increase"}]}, {"molecule": "CC(C)(Sc1ccc(CCN(CCCCC2CCCCC2)C(=O)NC2CCCCC2)cc1)C(=O)O", "note": "[GW7647]", "values": [{"measurement": "size of CD36+ population detected at day 32", "setting": "[4]; 1 μM added to day 18 CMs", "result": "significant increase"}]}, {"molecule": "O=c1[nH]c(-c2ccc(C(F)(F)F)cc2)nc2c1CSCC2", "note": "[XAV, 2-(4-(trifluoromethyl)phenyl)-7,8-dihydro-5H-thiopyrano[4,3-d]pyrimidin-4-ol]", "values": [{"measurement": "proportion of Ki67^+ cells in the population", "setting": "[2]; XAV following the CHIR/IGF2-induced proliferative stage", "result": "significantly reduced"}, {"measurement": "proportion of the non-cardiomyocytes", "setting": "[2]; XAV for 2 days after CHIR/IGF2", "result": "reduction"}]}, {"molecule": "CCCCCCCCCCCCCCCC(=O)O", "note": "[palmitate]", "values": [{"measurement": "expression of mitochondrial/electron transport chain genes ATP5A1, COX7A1, CKMT2", "setting": "FAO-related genes", "result": "no effect"}, {"measurement": "expression of FAO pathway components CD36, FABP3, CPT1B, MLYCD", "setting": "FAO-related genes; vs untreated populations", "result": "no effect"}, {"measurement": "level of ACC2", "setting": "FAO-related genes; vs untreated populations", "result": "no effect"}]}, {"molecule": "N[C@@H](Cc1cc(I)c(Oc2ccc(O)c(I)c2)c(I)c1)C(=O)O", "note": "[thyroid hormone (T3), triiodothyronine]", "values": [{"measurement": "effect on CD36 expression among other pathways tested", "setting": "[4]; only observed in the presence of PPARα signaling", "result": "largest effect"}]}, {"molecule": "insulin-like growth factor 2 [IGF2]", "values": [{"measurement": "expression of ANF", "setting": "[1]", "result": "no effect"}, {"measurement": "expression of BMP10", "setting": "[1]", "result": "no effect"}, {"measurement": "expression of HEY2", "setting": "[1]", "result": "no effect"}, {"measurement": "expression of MYCN", "setting": "[1]", "result": "no effect"}, {"measurement": "proportion of Ki67^−cTNT^+ cardiomyocytes detected at day 16", "setting": "[3]", "result": "significant increase"}]}, {"molecule": "neuregulin 1 [NRG]", "values": [{"measurement": "expression of ANF", "setting": "[1]", "result": "increased"}, {"measurement": "expression of HEY2", "setting": "[1]", "result": "reduced"}, {"measurement": "ANF+ cells by immunostaining", "setting": "[5]", "result": "presence"}, {"measurement": "HEY+ compact cells by immunostaining", "setting": "[5]", "result": "lack"}]}]}
